Experimental findings from US10183030B2, “17α,21-diesters of cortexolone for use in the treatment of tumors” (COSMO TECHNOLOGIES LTD., priority 2014, dated 2019) are described below.

The subject of assay [1] is stimulated PBMC (actively dividing cells). Nature of the assay: IC50 on stimulated PBMC (intrinsic toxicity). It counts as cell-based. To be noted: Homo sapiens.
For assay [2], the system named is HT29 colon cancer cells. The assay is described as follows: In vitro proliferation, HT29 (cancer cell panel). The class given is cell-based. As to conditions: Homo sapiens, HT-29; HT29; Table IV; read-out: In vitro proliferation IC50 (micro Molar). How it is done:
(§1) Each compounds was titrated from 3 uM to 200 uM.

In assay [3] the test system is MCF7 breast cancer cells. Nature of the assay: In vitro proliferation / cytotoxic assay, MCF7. The class given is cell-based. To be noted: Homo sapiens; MCF7; Table IV; read-out: In vitro proliferation IC50 (micro Molar).
Assay [4] has as its system MiaPaca2 (AR low) pancreatic cancer cells. The assay is described as follows: ATP-dependent proliferation/viability assay, MiaPaca2. As to conditions: Homo sapiens. The class given is cell-based. As to the method: (§2) The experimental method consisted of: • 1. […] After 24 hours, 10 nM DHT (dihydrotestosterone) with or without anti-androgen compounds, or DMSO vehicle (negative control) was added to the cultures. • 3.
as §1

In assay [5] the test system is Panc1 (AR+) pancreatic cancer cells. The assay is described as follows: ATP-dependent proliferation/viability assay, Panc1. The class given is cell-based. As to conditions: Homo sapiens. As to the method: as §2, §1
Assay [6] concerns PC3 (AR−) prostate cancer cells. The assay is described as follows: ATP-dependent proliferation/viability assay, PC3. The class given is cell-based. To be noted: Homo sapiens, 72 h, 3 days. As to the method:
(§3) The experiment was performed to test and to define the antitumor activity in vitro of cortexolone 17α-benzoate on LNCaP (AR^+) and PC3 (AR^−), representative of Prostatic cancer cell lines with Androgen Receptor (AR) positive or negative expression, respectively. The experimental method consisted of: • 1. […] After 24 hours, 10 nM DHT (dihydrotestosterone) with or without anti-androgen compounds, or DMSO vehicle (negative control) was added to the cultures. • 3.
(§4) The experiment was performed to test and to define antitumor activity in vitro of cortexolone 17α-valerate-21-propionate (CB-03-10) on LNCaP (AR^+) and PC3 (AR^−), representative of Prostatic cancer cell lines with AR positive or negative expression, respectively. The experimental method consisted of: • 1. […] After 24 hours, 10 nM DHT (dihydrotestosterone) with or without anti-androgen compounds, or DMSO vehicle (negative control) was added to the cultures. • 3.
as §1

The test system is the same in assay [7]. The assay is described as follows: ATP-dependent proliferation/viability assay, PC3. It counts as cell-based. To be noted: Homo sapiens, Table IV, read-out: In vitro proliferation IC50 (micro Molar).
The subject of assay [8] is LNCaP (AR+) prostate cancer cells. The assay is described as follows: ATP-dependent proliferation/viability assay, LNCaP. The class given is cell-based. To be noted: Homo sapiens. As to the method: as §3, §4, §1
For assay [9], the system named is MiaPaca-2 xenograft tumor. Nature of the assay: MiaPaca2 human pancreatic tumor xenograft in nude mice, subcutaneous treatment. It counts as in vivo, mouse. As to the method:
The test was carried out comparing the anti-tumor activity of cortexolone 17α-benzoate at two different dosages (8.0 mg/kg, corresponding approximately at 230 μM, and 40 mg/kg, corresponding approximately at 1150 μM), versus the vehicle (i.e. 0.4% (v/v) tween 80 and 0.5% (w/v) carboxymethylcellulose in normal saline) and versus the comparator Cyproterone Acetate at two different dosages (7.4 mg/kg and 37 mg/kg).
1×10^6 MiaPaca-2 cells suspended in matrigel were subcutaneously injected into 6 week old athymic nude mice.
The treatment with the tested compounds, with the vehicle and with the comparative compound, was initiated after the tumor volume has reached 50 mm^3 after transplantation. All compounds were injected 100 μL/mouse subcutaneously of low dose solution (approximately 230 μM) or 100 μL/mouse of high dose solution (approximately 1150 μM) of cortexolone 17α-benzoate, vehicle and cyproterone acetate, respectively. Compounds and controls were administered subcutaneously daily for 28 days.
Tumors were measured every 4 days with a digital caliper.
The results are plotted in FIG. 1 as average change in tumor volume relative to the start of treatment. Tumor volume was calculated according to the formula 0.5236(r1)^2(r2) where r1<r2.
The test was carried out comparing the anti-tumor activity of cortexolone 17α-valerate-21-propionate (CB-03-10) at two different dosages (approximately 8.6 mg/kg and 43 mg/kg) versus the vehicle (i.e. 0.4% (v/v) tween 80 and 0.5% (w/v) carboxymethylcellulose in normal saline) and versus the comparator Cyproterone Acetate at two different dosages (7.4 mg/kg and 37 mg/kg).
The treatment with the tested compound, with the vehicle and with the comparative compound was initiated after the tumor has reached a volume of 50 mm^3 after implantation, injecting subcutaneously 100 μL/mouse of low dose solution (approximately 230 μM) or 100 μL/mouse of high dose solution (approximately 1150 μM) of cortexolone 17α-valerate-21-propionate (CB-03-10), vehicle and cyproterone acetate, respectively. Compounds and controls were administered subcutaneously daily for 28 days.
The results are plotted in FIG. 2 as average change in tumor volume relative to the start of treatment. Tumor volume was calculated according to the formula 0.5236(r1)^2(r2) where r1<r2.
CPA a well-known anti-androgen was used as control. Briefly 1×10^6 MiaPaca2 cells suspended in matrigel were subcutaneously (SC) injected into 6 week old male athymic nude mice. Tumors were measured every 4 days with a digital caliper. Tumor volume was calculated according to the formula: 0.5236(r1) 2(r2) where r1<r2. Treatment with CB-03-10 and controls compounds was initiated after the tumor had reached 50 mm^3. Compounds diluted in DMSO/2-hydroxypropyl b-cyclodextrin (vehicle) were injected subcutaneously (SC) daily (100 μL/mouse) at the concentration of 40 mg/Kg daily for 28 consecutive days.
In general terms: In xenograft studies the graft and the host belong to different species.

Assay [10] relates to resting PBMC (quiescent, non-dividing cells). Nature of the assay: IC50 on resting PBMC (intrinsic toxicity). The class given is cell-based. To be noted: Homo sapiens, resting PBMC.
Assay [11] concerns Caspase 8, 9 and 3/7 in MiaPaca2 cells. Nature of the assay: Caspase activity in MiaPaca2 cells. It counts as cell-based, human. As to conditions: 8, 24, 48 hours. As to the method:
From previous studies was determined that CB-03-10 induces apoptosis using Annexin V staining in MiaPaca2 cells. To better analyze the phenomenon the enzymatic activity of Caspase 8 (initiator caspase for Extrinsic Pathway) and Caspase 9 (initiator caspase for Intrinsic Pathway) and of Caspases 3 and 7 (effector caspases) were measured.
After 24 hours test compounds were added to cells, Gemcitabine (a known pancreatic cancer chemotherapeutic agent) and DMSO were used as positive and negative control, respectively. After 8, 24, & 48 hours incubation with test compounds, cells were lysed in buffer containing the caspase 3/7 or 8 or 9 substrate and a stable luciferase in proprietary buffers. The lysates were transferred to white opaque plates before measuring luminescence in a Tecan Safire instrument. Parallel plates treated identically, were used to determine viable cells. All caspase activities were corrected for the number of viable cells.

The mark [12] stands for this setting: PBMC STIMULATED, Table IV, read-out: In vitro proliferation IC50 (micro Molar).
The mark [13] stands for this setting: MIA PaCa-2, 72 h, MiaPaca2, Tables I and II, unit inferred, titrated from 3 uM to 200 uM, 3 days, read-out: IC50.
Where [14] appears, read: MIA PaCa-2, MiaPaca2, Table IV, read-out: In vitro proliferation IC50 (micro Molar).
The mark [15] stands for this setting: PANC-1, 72 h, Panc1, Tables I and II, unit inferred, titrated from 3 uM to 200 uM, 3 days, read-out: IC50.
Where [16] appears, read: PANC-1, Panc1, Table IV, read-out: In vitro proliferation IC50 (micro Molar).
[17] abbreviates: Tables I and II, unit inferred, titrated from 3 uM to 200 uM.
[18] abbreviates: 72 h, Tables I and II, unit inferred, compounds titrated from 3 uM to 200 uM, 3 days, read-out: IC50.
Setting [19] is: Table IV, read-out: In vitro proliferation IC50 (micro Molar).

Read-outs that look alike come from different tables or passages of the source.

With `CCCC(=O)OC1(C(=O)CO)CCC2C3CCC4=CC(=O)CC[C@]4(C)C3=CC[C@@]21C` (single isomer, unassigned) [CB-03-04], the IC50 in [1] (setting [12]) is 360 µM; in [2], 51 µM; in [3], 88 µM; in assay [4] (setting [13]), 160 µM; in assay [4] (setting [14]) it was 160 µM; in assay [5] (setting [15]), 340 µM. Further, the IC50 in [5] (setting [16]) amounted to 340 µM.

Regarding `CCC(=O)O[C@]1(C(=O)CO)CC[C@H]2[C@@H]3CCC4=CC(=O)CC[C@]4(C)[C@H]3CC[C@@]21C` [CB-03-01], the IC50 in assay [1] (setting [12]) is 0.1 µM; in assay [3], 121 µM; in assay [6] (setting [17]) it was 190 µM; in assay [7], 190 µM; in assay [4] (setting [13]) it was 110 µM; in assay [4] (setting [14]), 110 µM. For the same compound, the IC50 in assay [8] (setting [18]) worked out at 33 µM; in assay [8] (setting [19]), 33 µM; in [5] (setting [15]) it was 490 µM; in assay [5] (setting [16]) it was 490 µM.

For the compound `C[C@]12CCC(=O)C=C1CC[C@@H]1[C@@H]2CC[C@@]2(C)[C@H]1CC[C@]2(OC(=O)c1ccccc1)C(=O)CO` [CB-03-06, cortexolone 17α-benzoate], in assay [9] (Examples 5 and 6, SC daily for 28 days, test compounds at high dose (approximately 1150 μM, 100 μL/mouse), Cyproterone Acetate treatment groups 7.4 and 37 mg/kg), the “pancreatic tumor size increase relative to the start of treatment” value is recorded as “less than 5 fold”.

`CC(=O)O[C@]1(C(C)=O)CC[C@H]2[C@@H]3C=C(Cl)C4=CC(=O)[C@@H]5C[C@@H]5[C@]4(C)[C@H]3CC[C@@]21C` [Cyproterone Acetate, Cyproterone acetate, reference compound]: the IC50 in assay [1] (setting [12]) came out at 62 µM; in assay [1] (stimulated PBMC, Example 7, Experiment 1, read-out: IC50 (microM) on Stimulated PBMC), 63 µM; in assay [1] (stimulated PBMC, Example 7, Experiment 2, read-out: IC50 (microM) on Stimulated PBMC), 62 µM; in assay [3] it was 64 µM; in assay [6] (10 nM DHT, Examples 1-2, Experiment 1), 98 µM; in assay [6] (10 nM DHT, Examples 1-2, Experiment 2) it was 90 µM. Moreover, the IC50 is 90 µM in assay [6] (setting [17]); 90 µM in assay [7]; 46 µM in assay [4] (MIA PaCa-2, 72 h, MiaPaca2, 10 nM DHT, 3 days, Examples 3-4, Experiment 1, sigmoidal dose-response curve fit, read-out: IC50); 39 µM in [4] (MIA PaCa-2, 72 h, MiaPaca2, 10 nM DHT, 3 days, Examples 3-4, Experiment 2, pooled experiments, least-squares fit, read-out: IC50); 39 µM in assay [4] (setting [13]); 39 µM in assay [4] (MIA PaCa-2, MiaPaca2, Example 7, Experiment 1, read-out: IC50). In addition, the IC50 in [4] (MIA PaCa-2, MiaPaca2, Example 7, Experiment 2, read-out: IC50) stood at 39 µM; in assay [4] (setting [14]), 39 µM; in assay [10] (Example 7, Experiment 1, read-out: IC50 (microM) on Resting PBMC), 18 µM; in [10] (Example 7, Experiment 2, read-out: IC50 (microM) on Resting PBMC), 84 µM; in assay [8] (72 h, 10 nM DHT, 3 days, Examples 1-2, Experiment 1 (sigmoidal dose response fit), read-out: IC50), 29 µM; in [8] (72 h, 10 nM DHT, 3 days, Examples 1-2, Experiment 2 (nonlinear regression least squares fit), read-out: IC50), 22 µM. Moreover, the IC50 in assay [8] (setting [18]) is 22 µM; in assay [8] (setting [19]), 22 µM; in [5] (PANC-1, 72 h, Panc1, 10 nM DHT, 3 days, Examples 3-4, Experiment 1, sigmoidal dose-response curve fit, read-out: IC50) it was 54 µM; in assay [5] (PANC-1, 72 h, Panc1, 10 nM DHT, 3 days, Examples 3-4, Experiment 2, pooled experiments, least-squares fit, read-out: IC50), 46 µM; in assay [5] (setting [15]) it was 46 µM; in assay [5] (PANC-1, Panc1, Example 7, Experiment 1, read-out: IC50), 52 µM. The IC50 in [5] (PANC-1, Panc1, Example 7, Experiment 2, read-out: IC50) was 46 µM; in [5] (setting [16]), 46 µM. Moreover, in assay [9] (Example 22, 40 mg/Kg SC daily for 28 consecutive days), the “pancreatic tumor size increase relative to the initial size, during the treatment period” value came to 12 fold.

On to `Nc1ccn([C@@H]2O[C@H](CO)[C@@H](O)C2(F)F)c(=O)n1` [Gemcitabine, reference compound], for which the “Caspase 3/7 induction” value in [11] is “not seen until the 48 hours mark”.
